{"source": "ChEMBL document CHEMBL1142524", "about": "“Virtual screening to successfully identify novel janus kinase 3 inhibitors: a sequential focused screening approach” (J Med Chem, 2008)"}
{"target": "T1, Tyrosine-protein kinase JAK3 (Homo sapiens, UniProt P52333)", "T1 sequence (P52333 whole entry)": "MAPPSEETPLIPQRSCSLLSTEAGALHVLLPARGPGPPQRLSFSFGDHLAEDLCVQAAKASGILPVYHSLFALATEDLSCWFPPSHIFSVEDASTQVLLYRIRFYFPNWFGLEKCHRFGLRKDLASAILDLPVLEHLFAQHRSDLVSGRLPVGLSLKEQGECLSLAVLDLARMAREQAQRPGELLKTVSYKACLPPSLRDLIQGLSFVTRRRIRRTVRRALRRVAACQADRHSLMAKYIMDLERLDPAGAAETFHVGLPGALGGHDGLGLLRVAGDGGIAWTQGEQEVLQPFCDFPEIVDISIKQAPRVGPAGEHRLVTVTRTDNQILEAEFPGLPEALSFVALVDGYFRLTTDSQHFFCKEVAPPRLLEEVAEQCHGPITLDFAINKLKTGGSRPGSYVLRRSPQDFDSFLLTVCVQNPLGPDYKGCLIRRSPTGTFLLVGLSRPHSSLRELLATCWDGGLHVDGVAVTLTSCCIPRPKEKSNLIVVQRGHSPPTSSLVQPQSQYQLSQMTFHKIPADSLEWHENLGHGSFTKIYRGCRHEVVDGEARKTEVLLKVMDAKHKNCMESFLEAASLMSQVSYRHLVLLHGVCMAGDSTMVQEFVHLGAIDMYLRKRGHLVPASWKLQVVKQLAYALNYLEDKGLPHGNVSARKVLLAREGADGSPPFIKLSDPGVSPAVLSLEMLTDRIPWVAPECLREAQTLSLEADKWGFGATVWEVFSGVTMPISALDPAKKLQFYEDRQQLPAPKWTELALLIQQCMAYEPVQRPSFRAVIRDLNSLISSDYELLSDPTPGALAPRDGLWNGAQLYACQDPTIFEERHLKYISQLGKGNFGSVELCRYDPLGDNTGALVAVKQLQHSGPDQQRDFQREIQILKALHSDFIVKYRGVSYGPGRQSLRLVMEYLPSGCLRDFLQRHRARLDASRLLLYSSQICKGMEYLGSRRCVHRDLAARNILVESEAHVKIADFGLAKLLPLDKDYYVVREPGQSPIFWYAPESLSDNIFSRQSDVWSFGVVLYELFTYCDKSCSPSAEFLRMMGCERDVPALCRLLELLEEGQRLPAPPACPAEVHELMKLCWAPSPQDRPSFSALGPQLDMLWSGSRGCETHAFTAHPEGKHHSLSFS", "assay": "Inhibition of JAK3", "units": {"IC50": "nM"}}
{"compound": "CN1CCN(c2ccc(Nc3ncc4[nH]nc(-c5ccccc5)c4n3)cc2)CC1", "IC50": 98}
{"compound": "Cc1cc(C(=O)Nc2ccc3[nH]ncc3c2)nn1-c1cccc(C(F)(F)F)c1", "IC50": 2640}
{"compound": "Oc1c2ccccc2c2c3c(cccc13)N=N2", "note": "[SP-600125]", "IC50": 957}
